# Experimental data published in PubChem BioAssay AID1919000 (Molecular Pharmacology Branch, DTP, NCI, 2023).
# System: 653999-131-R-J2-PDC complex spheroids, growth % test/control
# Assay: Anticancer human tumor 653999-131-R-J2-PDC patient-derived lung adenocarcinoma cell line growth inhibition [AhR]
# Conditions: for IC50: curve of first compound; for viability, T/C: stronger effect = lower value
# Text: Multicellular complex tumor spheroid response to aryl hydrocarbon receptor antagonists in combination with a variety of drugs and investigational agents in selected tumor cell lines
# The current study was undertaken to assess response to aryl hydrocarbon receptor antagonists in combination with standard-of-care drugs and investigational agents in solid tumor complex spheroid models. Complex spheroids include a stromal component modeled by human endothelial cells (HUVEC) and fibroblasts modeled by human mesenchymal stem cells (MSCs). The concentration ranges selected for each drug and investigational agent were based upon clinically achievable concentrations if the clinical Cmax of the agent was known.
# Compounds. The drugs and investigational agents: BAY 2416964 (NSC825713), GNF351 (NSC835774), CH-223191 (NSC835775), CPI-455 (NSC825282), aza-TdCyd (NSC777586), decitabine (NSC127716), belinostat (NSC758774), entinostat (NSC756642), pevonedistat (NSC761192), tazemetostat (NSC777109), talazoparib (NSC765396), olaparib (NSC753686), selinexor (NSC780203), nedisertib (M3814, NSC802822), bortezomib (NSC756655), venetoclax (NSC766270), doxorubicin (NSC123127), elimusertib (BAY189344, NSC800525), ceralasertib (AZD6738, NSC777638), TAK-243 (NSC785004), alisertib (NSC759677), etoposide (NSC141540), topotecan (NSC609699), eribulin (NSC707389), gemcitabine (NSC613327), carboplatin (NSC241240), cisplatin (NSC119875), and SN-38 (NSC673596) were obtained from the National Cancer Institute (NCI) Developmental Therapeutics Program Chemical Repository (32). The FDA-approved anticancer drug set is available from the Developmental Therapeutics Program at https://dtp.cancer.gov/organization/dscb/obtaining/available plates.htm. […] The stock solutions were prepared in dimethyl sulfoxide (DMSO, Sigma-Aldrich, St. Louis, MO, cat. D2650), except for the platinum compounds which were prepared in saline (Quality Biological, Gaithersburg, MD, cat. 114-055-101), at 800-fold the tested concentration and stored at -70 degrees C prior to their use. All drugs and investigational agents were tested over a range starting from a high concentration at or near the clinical Cmax and decreasing in half-log increments. If the clinical Cmax for an agent had not been determined, the highest concentration tested was 10 microM (Table 1).
# Cell Culture. All cells were maintained in an incubator at 37 degrees C and 5% CO2 with 95% humidity. The PDC lines were cultured according to standard operating procedures established by the NCI PDMR (https://pdmr.cancer.gov). Briefly, all PDCs were thawed and cultured in Matrigel-coated flasks prepared with a working solution of 1X Ham's F-12 nutrient mix, without supplementation (Invitrogen, Waltham, MA, cat. 11765054), 100 U/mL penicillin-streptomycin (Invitrogen, cat. 15140122), and 2.5% Matrigel (Corning Inc., Corning, NY, cat. 354248) for the first three passages. All PDCs were cultured in complete DMEM/F-12 media containing advanced DMEM/F-12 (Invitrogen, cat. 12634028), 4.9% defined fetal bovine serum, heat inactivated (HyClone Laboratories Inc., Logan, UT, cat. SH30070.03HI), 389 ng/mL hydrocortisone (Sigma-Aldrich, cat. H4001), 9.7 ng/mL human EGF recombinant protein (Invitrogen, cat. PHG0313), 23.4 microg/mL adenine (Sigma-Aldrich, cat. A2786), 97.3 U/mL penicillin-streptomycin (Invitrogen, cat. 15140122), 1.9 mM L-glutamine (Invitrogen, cat. 25030081), and 9.7 microM Y-27632 dihydrochloride (Tocris Bioscience, Bristol, United Kingdom, cat. 1254). The PDCs were cultured in complete DMEM/F12 media without 10 microM Y-27632 dihydrochloride for at least two passages prior to the screen. The established cell lines NCI-H1341 and […] were cultured in DMEM/F-12, HEPES (Invitrogen, cat. 11330032), 5% defined fetal bovine serum (HyClone Laboratories Inc., cat. SH30070.03), ITS premix universal culture supplement [insulin (5 microg/mL), transferrin (5 microg/mL), and selenious acid (5 ng/mL)] […]
# [1] = second compound 0.1 µM, first compound 0.00316 µM
# [2] = second compound 0.1 µM, first compound 0.01 µM
# [3] = second compound 0.1 µM, first compound 0.0316 µM
# [4] = second compound 0.1 µM, first compound 0.1 µM
# [5] = second compound 0.316 µM, first compound 0.00316 µM
# [6] = second compound 0.316 µM, first compound 0.01 µM
# [7] = second compound 0.316 µM, first compound 0.0316 µM
# [8] = second compound 0.316 µM, first compound 0.1 µM
# [9] = second compound 1 µM, first compound 0.00316 µM
# [10] = second compound 1 µM, first compound 0.01 µM
# [11] = second compound 1 µM, first compound 0.0316 µM
# [12] = second compound 1 µM, first compound 0.1 µM
# [13] = second compound 3.16 µM, first compound 0.00316 µM
# [14] = second compound 3.16 µM, first compound 0.01 µM
# [15] = second compound 3.16 µM, first compound 0.0316 µM
# [16] = second compound 3.16 µM, first compound 0.1 µM
# [17] = second compound 10 µM, first compound 0.00316 µM
# [18] = second compound 10 µM, first compound 0.01 µM
# [19] = second compound 10 µM, first compound 0.0316 µM
# [20] = second compound 10 µM, first compound 0.1 µM
# [21] = second compound 0.1 µM, first compound 0.316 µM
# [22] = second compound 0.1 µM, first compound 1 µM
# [23] = second compound 0.1 µM, first compound 3.16 µM
# [24] = second compound 0.1 µM, first compound 10 µM
# [25] = second compound 0.316 µM, first compound 0.316 µM
# [26] = second compound 0.316 µM, first compound 1 µM
# [27] = second compound 0.316 µM, first compound 3.16 µM
# [28] = second compound 0.316 µM, first compound 10 µM
# [29] = second compound 1 µM, first compound 0.316 µM
# [30] = second compound 1 µM, first compound 1 µM
# [31] = second compound 1 µM, first compound 3.16 µM
# [32] = second compound 1 µM, first compound 10 µM
# [33] = second compound 3.16 µM, first compound 0.316 µM
# [34] = second compound 3.16 µM, first compound 1 µM
# [35] = second compound 3.16 µM, first compound 3.16 µM
# [36] = second compound 3.16 µM, first compound 10 µM
# [37] = second compound 10 µM, first compound 0.316 µM
# [38] = second compound 10 µM, first compound 1 µM
# [39] = second compound 10 µM, first compound 3.16 µM
# [40] = second compound 10 µM, first compound 10 µM
# 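Also: spheroids exposed to agents for seven days.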
IC50 (second compound 0.1 µM),IC50 (second compound 0.316 µM),IC50 (second compound 1 µM),IC50 (second compound 3.16 µM),IC50 (second compound 10 µM),Structure (SMILES),"viability, T/C [3]","viability, T/C [4]","viability, T/C [7]","viability, T/C [8]","viability, T/C [11]","viability, T/C [12]","viability, T/C [15]","viability, T/C [16]","viability, T/C [19]","viability, T/C [20]","viability, T/C [21]","viability, T/C [22]","viability, T/C [25]","viability, T/C [26]","viability, T/C [29]",other results
36.7 nM,27.7 nM,24.5 nM,22.9 nM,21 nM,CC[C@@]1(O)C(=O)OCc2c1cc1n(c2=O)Cc2cc3c(CN(C)C)c(O)ccc3nc2-1 + CC(CO)NC(=O)c1cc(-c2ccc(Cl)cc2)nn(-c2cnn(C)c2)c1=O,52.2%,38.1%,46.8%,31.3%,40.6%,32.3%,43.6%,31.4%,41.3%,32.3%,–,–,–,–,–,"viability, T/C (second compound 0.1 µM, first compound 0.000316 µM): 94.8%; viability, T/C (second compound 0.1 µM, first compound 0.001 µM): 97.8%; viability, T/C [1]: 94.9%; viability, T/C [2]: 79%; viability, T/C (second compound 0.316 µM, first compound 0.000316 µM): 93.2%; viability, T/C (second compound 0.316 µM, first compound 0.001 µM): 94.4%; viability, T/C [5]: 97.4%; viability, T/C [6]: 79.1%; viability, T/C (second compound 1 µM, first compound 0.000316 µM): 111%; viability, T/C (second compound 1 µM, first compound 0.001 µM): 96%; viability, T/C [9]: 99.1%; viability, T/C [10]: 80.7%; viability, T/C (second compound 3.16 µM, first compound 0.000316 µM): 85.9%; viability, T/C (second compound 3.16 µM, first compound 0.001 µM): 92.3%; viability, T/C [13]: 95.3%; viability, T/C [14]: 69.8%; viability, T/C (second compound 10 µM, first compound 0.000316 µM): 90.5%; viability, T/C (second compound 10 µM, first compound 0.001 µM): 95.3%; viability, T/C [17]: 83.7%; viability, T/C [18]: 65.9%"
1270 nM,894 nM,944 nM,823 nM,846 nM,COc1cc(C2c3cc4c(cc3C(OC3OC5COC(C)OC5C(O)C3O)C3COC(=O)C23)OCO4)cc(OC)c1O (stereo not given) + CC(CO)NC(=O)c1cc(-c2ccc(Cl)cc2)nn(-c2cnn(C)c2)c1=O,87.5%,79.2%,82.3%,85.8%,86.5%,80.2%,79.4%,80.9%,83.2%,83%,73.9%,51.9%,63.5%,48.4%,77.2%,"viability, T/C [23]: 37.8%; viability, T/C [24]: 28.9%; viability, T/C [27]: 36.5%; viability, T/C [28]: 26.6%; viability, T/C [30]: 48%; viability, T/C [31]: 34.7%; viability, T/C [32]: 30.2%; viability, T/C [33]: 72.5%; viability, T/C [34]: 44.1%; viability, T/C [35]: 42.8%; viability, T/C [36]: 28.8%; viability, T/C [37]: 62.6%; viability, T/C [38]: 49.4%; viability, T/C [39]: 31.6%; viability, T/C [40]: 25.6%"
136 nM,124 nM,144 nM,167 nM,131 nM,COc1cccc2c1C(=O)c1c(O)c3c(c(O)c1C2=O)CC(O)(C(=O)CO)CC3OC1CC(N)C(O)C(C)O1 (stereo not given) + CC(CO)NC(=O)c1cc(-c2ccc(Cl)cc2)nn(-c2cnn(C)c2)c1=O,60.7%,53%,62.3%,52.8%,71%,57%,62.9%,49.5%,73.4%,54.6%,35%,11.7%,31.1%,10.4%,33%,"viability, T/C [23]: 6.06%; viability, T/C [24]: 19.9%; viability, T/C [27]: 4.91%; viability, T/C [28]: 20.9%; viability, T/C [30]: 11.2%; viability, T/C [31]: 4.47%; viability, T/C [32]: 18.9%; viability, T/C [33]: 42.3%; viability, T/C [34]: 6.87%; viability, T/C [35]: 7.41%; viability, T/C [36]: 20.7%; viability, T/C [37]: 31.8%; viability, T/C [38]: 5.67%; viability, T/C [39]: 9.25%; viability, T/C [40]: 21.4%"
> 1000 nM,> 1000 nM,> 1000 nM,> 1000 nM,> 1000 nM,Nc1ncn(C2CC(O)C(CO)O2)c(=O)n1 (stereo not given) + CC(CO)NC(=O)c1cc(-c2ccc(Cl)cc2)nn(-c2cnn(C)c2)c1=O,103%,89.4%,118%,89.8%,122%,109%,119%,110%,109%,126%,84.5%,79.9%,91.3%,83%,88.4%,"viability, T/C [1]: 106%; viability, T/C [2]: 110%; viability, T/C [5]: 106%; viability, T/C [6]: 110%; viability, T/C [9]: 104%; viability, T/C [10]: 108%; viability, T/C [30]: 86.4%; viability, T/C [13]: 106%; viability, T/C [14]: 111%; viability, T/C [33]: 90.9%; viability, T/C [34]: 87.8%; viability, T/C [17]: 117%; viability, T/C [18]: 116%; viability, T/C [37]: 99%; viability, T/C [38]: 109%"
